One experiment relates to THP-1 cells. The experiment in a line: TNFα generation assay. The conditions noted are these: Table 22, read-out: IC50 in TNFα generation assay. Type of experiment: cell-based, human. The procedure, abridged: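 Secreted TNFα in supernatant quantified by ELISA or AlphaLISA after 7 h culture on human IgG-coated wells (10 μg/ml coating). Cells were IFN-γ-differentiated THP-1 (10 ng/ml, 2 days), exposed to compound for 30 min at room temperature before plating.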

Experiment [1] addresses T1, glutathione S-transferase (GST)-fused full-length human Syk protein (Homo sapiens, UniProt P43405).
T1 construct: (GST)-fused full-length human Syk protein; GST (glutathione S-transferase); purchased Carna Biosciences
Put plainly: Syk enzyme assay. Format: biochemical. The conditions noted are these: Syk enzyme assay, Test Example 1; read-out: IC50 of Syk-inhibitory activity. The method, boiled down: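 Baculovirus-expressed enzyme (1.2 ng) was preincubated with compound in HEPES pH 7.0/MgCl2/DTT buffer, 2 min shaking then 13 min at room temperature. Biotin-EDPDYEWPSA-NH2 (0.4 μM final) and ATP (27 μM final) were added for 40 min at room temperature. EDTA stop, streptavidin-XL/PT66-K TR-FRET at 615/665 nm gave IC50.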

The mark [2] stands for this setting: Homo sapiens, THP-1, THP-1 cells.

Structures are written as SMILES. Like-named read-outs stand apart in the source and are kept apart here.

With `Cc1nc2ccc(Nc3nc(N[C@H](C)[C@H](C)N)c(F)cc3C(N)=O)cc2nc1C` (racemic) [Example 006-185, 6-(((2R,3S)-3-aminobutan-2-yl)amino)-2-((2,3-dimethylquinoxalin-6-yl)amino)-5-fluoronicotinamide 6-(((2S,3R)-3-aminobutan-2-yl)amino)-2-((2,3-dimethylquinoxalin-6-yl)amino)-5-fluoronicotinamide], the IC50 in the experiment with THP-1 cells (setting [2]) fell in the range of 65 to 130 nM; in experiment [1], 10 to 50 nM.

Turning to `NC(=O)c1cc(F)c(N[C@@H]2CCCC[C@@H]2N)nc1Nc1ccnc2c1ccn2CC(F)(F)F` [Example 004-039], the IC50 was 130 to 200 nM in the experiment with THP-1 cells (setting [2]) and under 10 nM in experiment [1].

Consider `CCC[C@@H](Nc1nc(Nc2cnc(C)c(-n3nccn3)c2)c(C(N)=O)cc1F)[C@@H](N)CC` [Example 006-403, 6-(((3S,4R)-3-aminoheptan-4-yl)amino)-5-fluoro-2-((6-methyl-5-(2H-1,2,3-triazol-2-yl)pyridin-3-yl)amino)nicotinamide], for which the IC50 fell in the range of 130 to 200 nM in the experiment on THP-1 cells (setting [2]) and 10 to 50 nM in experiment [1].

Take `NC(=O)c1cc(F)c(N[C@@H]2CCCC[C@@H]2N)nc1Nc1cncc(-c2ccccc2F)c1` [Example 006-166, 6-(((1R,2S)-2-aminocyclohexyl)amino)-5-fluoro-2-((5-(2-fluorophenyl)pyridin-3-yl)amino)fluoronicotinamide]: the IC50 was under 65 nM in the experiment with THP-1 cells (THP-1 cells) and under 10 nM in experiment [1].

Consider `NC(=O)c1cc(F)c(N[C@@H]2CCCC[C@@H]2N)nc1Nc1ccnc(-n2cccc2)c1` (relative stereo) [Example 006-124, 2-((2-(1H-pyrrol-1-yl)pyridin-4-yl)amino)-6-((cis-2-aminocyclohexyl)amino)-5-fluoronicotinamide], for which the IC50 with THP-1 cells (setting [2]) is 130 to 200 nM; in experiment [1] it was under 10 nM.

`CCC[C@@H](Nc1nc(Nc2cncc(C3CC3)c2)c(C(N)=O)cc1F)[C@@H](N)CC` [Example 006-402, 6-(((3S,4R)-3-aminoheptan-4-yl)amino)-2-((5-cyclopropylpyridin-3-yl)amino)-5-fluoronicotinamide]: the values for the IC50 (in the experiment with THP-1 cells (setting [2]); in experiment [1]) were 130 to 200 nM and under 10 nM, respectively.

As to `Cc1nn(C)c2ccc(Nc3nc(N[C@H](CC4CC4)[C@H](C)N)c(F)cc3C(N)=O)cc12` [Example 006-442, 6-(((2R,3S)-3-amino-1-cyclopropylbutan-2-yl)amino)-2-((1,3-dimethyl-1H-indazol-5-yl)amino)-5-fluoronicotinamide], the IC50 with THP-1 cells (setting [2]) is under 65 nM; in experiment [1], under 10 nM.

Regarding `CN(C)C(=O)c1cc2cc(Nc3nc(N[C@@H]4CCCC[C@@H]4N)c(F)cc3C(N)=O)ccc2[nH]1` (relative stereo) [Example 029-016, 5-((6-(cis-2-aminocyclohexylamino)-3-carbamoyl-5-fluoropyridin-2-yl)amino)-N,N-dimethyl-1H-indole-2-carboxamide], the IC50 with THP-1 cells (setting [2]) was 130 to 200 nM; in experiment [1], under 10 nM.

Take `CCn1nc(F)c2cc(Nc3nc(N[C@H](CC4CC4)[C@H](C)N)c(F)cc3C(N)=O)ccc21` [Example 006-509, 6-(((2R,3S)-3-amino-1-cyclopropylbutan-2-yl)amino)-2-((1-ethyl-3-fluoro-1H-indazol-5-yl)amino)-5-fluoronicotinamide]: the IC50 in the experiment on THP-1 cells (setting [2]) is 65 to 130 nM; in experiment [1], under 10 nM.

As for `Cn1c(=O)ccc2cc(Nc3nc(NC4CCCCC4N)c(F)cc3C(N)=O)cnc21` (stereo not shown) [Example 002-115], the figures for the IC50 (in the experiment on THP-1 cells (setting [2]); in experiment [1]) were 130 to 200 nM and 10 to 50 nM, respectively.

In the case of `COc1ccc2cc(Nc3nc(N[C@@H]4CCCC[C@@H]4N)c(F)cc3C(N)=O)cnc2c1` (relative stereo) [Example 004-128, 6-(cis-2-aminocyclohexylamino)-5-fluoro-2-((7-methoxyquinolin-3-yl)amino)nicotinamide], the figures for the IC50 (in the experiment with THP-1 cells (setting [2]); in experiment [1]) were 65 to 130 nM and under 10 nM, respectively.

As for `Cn1nc(F)c2ccc(Nc3nc(NC4CCCCC4N)c(F)cc3C(N)=O)cc21` (stereo not shown) [Example 002-198], the values for the IC50 (with THP-1 cells (setting [2]); in experiment [1]) were 65 to 130 nM and under 10 nM, respectively.

For `CC(C)C[C@H](CN)Nc1nc(Nc2ccc3cnn(C)c3c2)c(C(N)=O)cc1F` [Example 006-226, (R)-6-((1-amino-4-methylpentan-2-yl)amino)-5-fluoro-2-((1-methyl-1H-indazol-6-yl)amino)nicotinamide], the IC50 was 65 to 130 nM with THP-1 cells (setting [2]) and under 10 nM in experiment [1].

On to `CCn1ncc2ccc(Nc3nc(NC4CCCCC4N)c(F)cc3C(N)=O)cc21` (stereo not shown) [Example 002-185], for which the values for the IC50 (in the experiment with THP-1 cells (setting [2]); in experiment [1]) were under 65 nM and under 10 nM, respectively.

With `NC(=O)c1cc(F)c(N[C@@H]2CCCC[C@@H]2N)nc1Nc1cncc(-c2cccs2)c1` (relative stereo) [Example 004-054], the IC50 with THP-1 cells (setting [2]) was 65 to 130 nM; in experiment [1], under 10 nM.

In the case of `NC(=O)c1cc(Cl)c(NC2CCCCC2N)nc1Nc1cnc2ccccc2c1` (stereo not shown) [Example 035-001], the IC50 is 65 to 130 nM with THP-1 cells (setting [2]) and under 10 nM in experiment [1].

`CC(C)C[C@H](CN)Nc1nc(Nc2cncc(C3CC3)c2)c(C(N)=O)cc1F` [Example 006-144, (R)-6-((1-amino-4-methylpentan-2-yl)amino)-2-((5-cyclopropylpyridin-3-yl)amino)-5-fluoronicotinamide]: the results for the IC50 (in the experiment with THP-1 cells (setting [2]); in experiment [1]) were 65 to 130 nM and under 10 nM, respectively.

Turning to `C[C@H](N)[C@@H](CC1CC1)Nc1nc(Nc2cccc3c2cnn3C)c(C(N)=O)cc1F` [Example 006-356, 6-(((2R,3S)-3-amino-1-cyclopropylbutan-2-yl)amino)-5-fluoro-2-((1-methyl-1H-indazol-4-yl)amino)nicotinamide], the IC50 with THP-1 cells (setting [2]) was under 65 nM; in experiment [1], under 10 nM.

Consider `CC(C)C[C@H](CN)Nc1nc(Nc2ccnc(-c3ccoc3)c2)c(C(N)=O)cc1F` [Example 006-155, (R)-6-((1-amino-4-methylpentan-2-yl)amino)-5-fluoro-2-((2-(furan-3-yl)pyridin-4-yl)amino)nicotinamide], for which the IC50 was 65 to 130 nM in the experiment with THP-1 cells (setting [2]) and under 10 nM in experiment [1].

For the molecule `C[C@H](N)[C@@H](CC1CC1)Nc1nc(Nc2cncc(F)c2)c(C(N)=O)cc1F` [Example 006-357, 6-(((2R,3S)-3-amino-1-cyclopropylbutan-2-yl)amino)-5-fluoro-2-((5-fluoropyridin-3-yl)amino)nicotinamide], the IC50 is 65 to 130 nM in the experiment with THP-1 cells (setting [2]) and 10 to 50 nM in experiment [1].

As for `COc1cc(Nc2nc(N[C@H](C)[C@H](C)N)c(F)cc2C(N)=O)cc(OC)n1` (racemic) [Example 006-112, 6-(((2R,3S)-3-aminobutan-2-yl)amino)-2-((2,6-dimethoxypyridin-4-yl)amino)-5-fluoronicotinamide 6-(((2S,3R)-3-aminobutan-2-yl)amino)-2-((2,6-dimethoxypyridin-4-yl)amino)-5-fluoronicotinamide], the figures for the IC50 (in the experiment on THP-1 cells (setting [2]); in experiment [1]) were 65 to 130 nM and under 10 nM, respectively.

`Cc1cncc(Nc2nc(NC[C@H](C)N)c(F)cc2C(N)=O)c1` [Example 006-094, (S)-6-((2-aminopropyl)amino)-5-fluoro-2-((5-methylpyridin-3-yl)amino)nicotinamide]: the values for the IC50 (in the experiment with THP-1 cells (setting [2]); in experiment [1]) were 65 to 130 nM and 10 to 50 nM, respectively.

`CC[C@@H](Nc1nc(Nc2cc(OC)nc(OC)c2)c(C(N)=O)cc1F)[C@H](C)N` [Example 006-267, 6-(((2S,3R)-2-aminopentan-3-yl)amino)-2-((2,6-dimethoxypyridin-4-yl)amino)-5-fluoronicotinamide]: the IC50 in the experiment on THP-1 cells (setting [2]) is under 65 nM; in experiment [1], under 10 nM.

The values above are taken from US8895585B2, “Nicotinamide derivative or salt thereof” (FUJIFILM Corporation, priority 2010, dated 2014).
